Experimental data reported in ChEMBL document CHEMBL3885861, “Open TG-GATES”.

Species on record: Rattus norvegicus
Assay: Open TG-GATES - Regimen: Single
Assay type: toxicity, organism-based, Sprague-Dawley
Set-up: regimen Single, gender Male, age 6 weeks
Settings: in vivo, po, 1000 mg/kg, route gavage, dose level High; for APTT / Bas / Eos / Fbg / Hb / Ht / Lym / MCH / MCHC / MCV / Mono / Neu / PT / Plat / RBC / Ret / WBC: tissue Blood; for KIDNEY_L / KIDNEY_R / KIDNEY_TOTAL: tissue Kidney; for LIVER: tissue Liver; for A/G / ALP / ALT / AST / BUN / CRE / Ca / Cl / DBIL / GLC / IP / K / LDH / Na / PL / RALB / TBIL / TC / TG / TP / gamma-GTP: tissue Plasma

O=C(N[C@H](CO)[C@H](O)c1ccc([N+](=O)[O-])cc1)C(Cl)Cl [CHLORAMPHENICOL]
TERMINAL_BW (3 h): 221.6 g
APTT (3 h): 17.1 s
Bas (3 h): 0%
Eos (3 h): 1%
Fbg (3 h): 263.6 mg/dL
Hb (3 h): 13.5 g/dL
Ht (3 h): 39.6%
Lym (3 h): 73%
MCH (3 h): 21.7 pg
MCHC (3 h): 34.2%
MCV (3 h): 63.7 fL
Mono (3 h): 3.8%
Neu (3 h): 21.8%
PT (3 h): 14.9 s
Plat (3 h): 112.6 x10_4/uL
RBC (3 h): 622.4 x10_4/ul
Ret (3 h): 7.8%
WBC (3 h): 76.3 x10_2/uL
KIDNEY_L (3 h): 1 g
KIDNEY_R (3 h): 1 g
KIDNEY_TOTAL (3 h): 2 g
LIVER (3 h): 9.5 g
A/G (3 h): 0.9
ALP (3 h): 1586 IU/L
ALT (3 h): 42 IU/L
AST (3 h): 78.4 IU/L
BUN (3 h): 8.4 mg/dL
CRE (3 h): 0.2 mg/dL
Ca (3 h): 10.9 mg/dL
Cl (3 h): 106.6 meq/L
DBIL (3 h): 0.012 mg/dL
GLC (3 h): 182.4 mg/dL
IP (3 h): 9 mg/dL
K (3 h): 4.2 meq/L
LDH (3 h): 56.4 IU/L
Na (3 h): 140 meq/L
PL (3 h): 137.2 mg/dL
RALB (3 h): 2.6 g/dL
TBIL (3 h): 0.064 mg/dL
TC (3 h): 70.4 mg/dL
TG (3 h): 63 mg/dL
TP (3 h): 5.5 g/dL
gamma-GTP (3 h): 1 IU/L
TERMINAL_BW (6 h): 221.4 g
APTT (6 h): 16.8 s
Bas (6 h): 0%
Eos (6 h): 1%
Fbg (6 h): 278.4 mg/dL
Hb (6 h): 13.9 g/dL
Ht (6 h): 45.6%
Lym (6 h): 73.8%
MCH (6 h): 21.1 pg
MCHC (6 h): 30.4%
MCV (6 h): 69.3 fL
Mono (6 h): 2%
Neu (6 h): 23.2%
PT (6 h): 15 s
Plat (6 h): 113 x10_4/uL
RBC (6 h): 657.2 x10_4/ul
Ret (6 h): 7.7%
WBC (6 h): 59.5 x10_2/uL
KIDNEY_L (6 h): 0.9 g
KIDNEY_R (6 h): 0.9 g
KIDNEY_TOTAL (6 h): 1.8 g
LIVER (6 h): 8.5 g
A/G (6 h): 0.9
ALP (6 h): 1369 IU/L
ALT (6 h): 33.2 IU/L
AST (6 h): 69 IU/L
BUN (6 h): 7.8 mg/dL
CRE (6 h): 0.2 mg/dL
Ca (6 h): 11.1 mg/dL
Cl (6 h): 107 meq/L
DBIL (6 h): 0.01 mg/dL
GLC (6 h): 186.2 mg/dL
IP (6 h): 10.3 mg/dL
K (6 h): 4.1 meq/L
LDH (6 h): 57.6 IU/L
Na (6 h): 141.4 meq/L
PL (6 h): 128.2 mg/dL
RALB (6 h): 2.6 g/dL
TBIL (6 h): 0.072 mg/dL
TC (6 h): 70 mg/dL
TG (6 h): 26.2 mg/dL
TP (6 h): 5.5 g/dL
gamma-GTP (6 h): 1 IU/L
TERMINAL_BW (9 h): 221.1 g
APTT (9 h): 17 s
Bas (9 h): 0%
Eos (9 h): 0.8%
Fbg (9 h): 281.4 mg/dL
Hb (9 h): 13.8 g/dL
Ht (9 h): 44%
Lym (9 h): 80.2%
MCH (9 h): 21.4 pg
MCHC (9 h): 31.4%
MCV (9 h): 68.2 fL
Mono (9 h): 1.6%
Neu (9 h): 17.8%
PT (9 h): 15.6 s
Plat (9 h): 107.2 x10_4/uL
RBC (9 h): 644.8 x10_4/ul
Ret (9 h): 7.5%
WBC (9 h): 53.4 x10_2/uL
KIDNEY_L (9 h): 0.9 g
KIDNEY_R (9 h): 0.9 g
KIDNEY_TOTAL (9 h): 1.8 g
LIVER (9 h): 8.5 g
A/G (9 h): 0.9
ALP (9 h): 1491.8 IU/L
ALT (9 h): 30 IU/L
AST (9 h): 68 IU/L
BUN (9 h): 8.2 mg/dL
CRE (9 h): 0.2 mg/dL
Ca (9 h): 10.9 mg/dL
Cl (9 h): 105.4 meq/L
DBIL (9 h): 0.018 mg/dL
GLC (9 h): 176.6 mg/dL
IP (9 h): 10.6 mg/dL
K (9 h): 4.2 meq/L
LDH (9 h): 69.6 IU/L
Na (9 h): 140 meq/L
PL (9 h): 125.8 mg/dL
RALB (9 h): 2.5 g/dL
TBIL (9 h): 0.074 mg/dL
TC (9 h): 66.6 mg/dL
TG (9 h): 44 mg/dL
TP (9 h): 5.5 g/dL
gamma-GTP (9 h): 1 IU/L
TERMINAL_BW (24 h): 222.4 g
APTT (24 h): 16.6 s
Bas (24 h): 0%
Eos (24 h): 0.8%
Fbg (24 h): 255.8 mg/dL
Hb (24 h): 14.2 g/dL
Ht (24 h): 44.2%
Lym (24 h): 83%
MCH (24 h): 21.3 pg
MCHC (24 h): 32.1%
MCV (24 h): 66.4 fL
Mono (24 h): 4%
Neu (24 h): 11.6%
PT (24 h): 15.7 s
Plat (24 h): 121.3 x10_4/uL
RBC (24 h): 665 x10_4/ul
Ret (24 h): 6.3%
WBC (24 h): 54.2 x10_2/uL
KIDNEY_L (24 h): 0.9 g
KIDNEY_R (24 h): 0.9 g
KIDNEY_TOTAL (24 h): 1.9 g
LIVER (24 h): 9.4 g
A/G (24 h): 0.9
ALP (24 h): 1571.8 IU/L
ALT (24 h): 45.8 IU/L
AST (24 h): 79.2 IU/L
BUN (24 h): 14.4 mg/dL
CRE (24 h): 0.2 mg/dL
Ca (24 h): 11.6 mg/dL
Cl (24 h): 106.8 meq/L
DBIL (24 h): 0.016 mg/dL
GLC (24 h): 184.8 mg/dL
IP (24 h): 9.1 mg/dL
K (24 h): 4.1 meq/L
LDH (24 h): 64 IU/L
Na (24 h): 142.2 meq/L
PL (24 h): 122.4 mg/dL
RALB (24 h): 2.6 g/dL
TBIL (24 h): 0.068 mg/dL
TC (24 h): 65.2 mg/dL
TG (24 h): 50.8 mg/dL
TP (24 h): 5.6 g/dL
gamma-GTP (24 h): 1 IU/L
